Data from article PMC12775124, “CUL4A-DDB1-DCAF10 is an N-recognin for N-terminally acetylated Src kinases” (Nature Communications, 2026).

Columns and labels:
DCAF10 = assay: Peptide pull-down with quantitative MS, mouse liver lysate, DCAF10; format: binding
Experimental: Biotinylated 10-mer Nt-peptides (Nt-free, Nt-acetylated, and, where indicated, Nt-myristoylated; sequences in Supplementary Table 1) were synthesized with a C-terminal Lys3 spacer and biotin, immobilized on magnetic streptavidin beads, and incubated with HeLa or mouse liver lysates. After standardized washes, bound proteins were on-bead reduced/alkylated, digested with LysC/trypsin, desalted, and analysed by LC-MS in DIA mode (Orbitrap Exploris 480) as described previously[24]. Variants included endogenous Nt-sequences, swap and mutant (Ala-Ala-Ala or Nt-amino acids) peptides, and pairwise comparisons of conditions of interest.
Briefly, magnetic streptavidin beads (DynabeadsTM
Beads were then washed three times with PBS.
210 washing, 1 mg of HeLa lysates or 2 mg of liver lysates was taken, and lysis buffer (75
Lysates were incubated with streptavidin
HeLa pull-downs were washed twice with lysis buffer and twice
Liver pulldowns were washed twice with cold low salt buffer (50 mM
220 individually ventilated cages under a 12-h light/dark cycle and were provided with sterile
No animal procedures were performed specifically for this
230 of 1:100), and desalted/concentrated on C18 reversed phase stage tips as previously
526 Mass spectrometry measurements and raw file processing
527 Samples (peptide pull-downs, IPs and high-pH fractionations) were separated on an […]

pY397 Lyn = assay: Phosphorylation of Lyn-GFP variants at pY397, Western blot (reviewers only); format: cell-based, human; details: preliminary experiment, unstimulated cells, three independent blots
Text: distinct in term of phospho-tyrosine activity?
We agree that understanding the functional consequences of N-terminal acetylation versus myristoylation—particularly regarding kinase activity and localization—is among the most relevant questions and a key next step in this project. As an initial indication, we performed a preliminary experiment using full-length Lyn constructs (LynWT-GFP, LynG2A-GFP, and LynG2P-GFP) with or without NMT1/2 RNAi and probed the activating phospho-tyrosine site of Lyn (pY397). We observed marked […]
upon NMT1/2 knockdown specifically at the activating pY397 site, while global pY levels appeared to be largely unchanged in these unstimulated cells, […] (Figure 2 provided to reviewers only). […]
have not included them in the manuscript but provide them for the reviewers’ information only, as we are working on consequences for kinase activity and biological role. We plan to pursue a systematic analysis under stimulated conditions, quantifying pY patterns and localization changes to define how the N-terminal state affects SFK signaling output. […]
Fig. 2 for reviewers only. a) LynWT-GFP, LynG2A-GFP and LynG2P-GFP expressing cells were treated with NMT1/2 RNAi or left untreated and then blotted against anti-pY397 Lyn, pan-anti-pY and controls. b) Quantification of three independent blots. […]

[1] = tested on: DLD-1 Lyn KO Flp-In T-REx cells; assay: Direct ubiquitin blot of Lyn-GFP immunoprecipitates; format: cell-based, human; details: anti-GFP IP, anti-Ub blot, n = 3
Experimental: Fig. 6 N-terminal glycine mutation abolishes DCAF10-dependent stability and ubiquitination. a DLD-1 Flp-In T-REx cells and Lyn KO cells expressing Lyn^WT-GFP, Lyn^G2A-GFP, or Lyn^G2P-GFP were induced for 24 h with 100 ng/mL doxycycline. Cells were treated with NMT1/2 siRNA, DCAF10 siRNA, or both (or left untreated) for 72 h. Representative WBs are shown. Filled circles represent siRNA treatment, empty circles untreated. b WB quantifications of Lyn levels normalized to vinculin. Purple: untreated with NMT1/2 siRNA; blue: treated with NMT1/2 siRNA. Mean ± s.d. with individual data points are shown (n = 3 independent biological replicates). c Schematic of ubiquitination experiments. Created in BioRender. […] Lysates have been treated with NMT1/2 RNAi for 72 h. i Quantification of in vitro ubiquitination assays. Mean ± s.d. with individual data points are shown (n = 3 independent ubiquitination assays). Volcano plots of Lyn-GFP^WT binding partners: j NMT1/2 siRNA ± doxycycline (Dox); k Control ± doxycycline; l NMT1/2 siRNA vs. control both with doxycycline. The −log10 adjusted p-value (two-sided Student’s t test with permutation-based multiple-testing correction; y-axis) is plotted against the log2 fold change (x-axis). […]
We next assessed the role of the Lyn Nt-residue for ubiquitination by performing two complementary experimental set-ups (Fig. 6c). […]

[2] = tested on: DLD-1 Flp-In T-REx and Lyn KO cells; assay: Level of Lyn / Lyn-GFP variants after NMT1/2 and DCAF10 siRNA, Western blot; format: cell-based, human
Text: To further investigate the role of the Nt-amino acid and its modification in DCAF10 recognition and DCAF10-dependent ubiquitination, we used the CRISPR/Cas9 technique to knock out Lyn in DLD-1 cell lines with T-REx Flp-In background (DLD-1 Lyn KO Flp-In T-REx) (Supplementary Fig. 7a–c). We then integrated Lyn^WT-GFP and two Nt-mutants (Lyn^G2A-GFP and Lyn^G2P-GFP) under a doxycycline-inducible promoter into the Flp-In cassette. Alanine (G2A) is expected to be efficiently acetylated by NatA, generating an Nt-acetylated Lyn mutant. Conversely, the proline (G2P) mutant, is expected not to be acetylated and may retain a free N-terminus[3],[36],[37]. Doxycycline-induced expression of Lyn^WT-GFP, Lyn^G2A-GFP, and Lyn^G2P-GFP was confirmed by Western blot, MS, and fluorescence microscopy (Supplementary Figs. 7d, e; 8a and Supplementary Data 6). While all constructs were ~2–5-fold higher expressed than endogenous Lyn, G2A and G2P were further elevated relative to WT, which may reflect increased stability when Nt-Gly/acetylation is altered (Supplementary Fig. 7e). […] Lyn^WT-GFP mirrored the behavior of endogenous Lyn under NMT1/2 siRNA treatment. Lyn levels decreased with NMT1/2 KD, but were rescued when siRNAs targeting both NMT1/2 and DCAF10 were applied (Fig. 6a, b). […] The weaker reduction of Lyn^WT-GFP may result from Lyn overexpression and the limiting availability of DCAF10.
Fig. 6 N-terminal glycine mutation abolishes DCAF10-dependent stability and ubiquitination. a DLD-1 Flp-In T-REx cells and Lyn KO cells expressing Lyn^WT-GFP, Lyn^G2A-GFP, or Lyn^G2P-GFP were induced for 24 h with 100 ng/mL doxycycline. Cells were treated with NMT1/2 siRNA, DCAF10 siRNA, or both (or left untreated) for 72 h. Representative WBs are shown. Filled circles represent siRNA treatment, empty circles untreated. b WB quantifications of Lyn levels normalized to vinculin. Purple: untreated with NMT1/2 siRNA; blue: treated with NMT1/2 siRNA. Mean ± s.d. with individual data points are shown (n = 3 independent biological replicates). c Schematic of ubiquitination experiments. Created in BioRender. […] Lysates have been treated with NMT1/2 RNAi for 72 h. i Quantification of in vitro ubiquitination assays. Mean ± s.d. with individual data points are shown (n = 3 independent ubiquitination assays). Volcano plots of Lyn-GFP^WT binding partners: j NMT1/2 siRNA ± doxycycline (Dox); k Control ± doxycycline; l NMT1/2 siRNA vs. control both with doxycycline. The −log10 adjusted p-value (two-sided Student’s t test with permutation-based multiple-testing correction; y-axis) is plotted against the log2 fold change (x-axis). Threshold for significance: −log10 p-value ≥ 1.3 (p ≤ 0.05), log2 fold change ≤ −1 or ≥ 1. DCAF10 and Lyn-GFP are marked in green, significant binding partners in purple and in blue, respectively. Source data are provided as a Source data file.
DLD-1 Lyn knockout (KO) Flp-In T-REx cells were generated by CRISPR/Cas9 electroporation using two guide RNAs targeting the LYN locus. Editing and clone validation were confirmed by genomic sequencing, Western blotting, and MS[51]. Stable cell lines expressing doxycycline-inducible Lyn-GFP (WT, G2A, or G2P) were established by FRT/Flp-mediated recombination and validated by antibiotic selection, Western blotting, and fluorescence microscopy. Detailed protocols are provided in the Supplementary Methods and Tables.
461 electroporated using the CM137 program. Following electroporation, the cells were kept […]

Substance	DCAF10 binding (in words) (DCAF10)	Decrease of pY397 phosphorylation upon NMT1/2 knockdown (pY397 Lyn)	Ubiquitination in cells (in words) [1]	Level decrease following NMT1/2 KD ([2]; DLD-1, 72 h NMT1/2 siRNA, 24 h doxycycline 100 ng/mL, WB/vinculin, average, n = 3)	Dependency on NMT1/2 and DCAF10 (in words) ([2]; DLD-1, 72 h siRNA)	Level increase upon combined NMT1/2 and DCAF10 KD ([2]; DLD-1, 72 h siRNA, WB/vinculin, n = 3)
GCIKSKGKDSKK [Ac-Lyn, Nt-peptide of Lyn (aa 1–10 + KKK-biotin), Nt-acetylated]	confirmed DCAF10 binding	–	–	–	–	–
Lyn^WT-GFP: doxycycline-inducible C-terminally GFP-fused Lyn in DLD-1 Lyn KO cells	–	approximately 15%	ubiquitinated under both conditions, with a stronger signal in controls	21%	remained dependent on NMT1/2 and DCAF10	41.7%
